These are literature values, as cited in patent US8057811B2 (Douglas Pharmaceuticals Limited, priority 2003, dated 2011).

For `CN1CCN(C2=Nc3cc(Cl)ccc3Nc3ccccc32)CC1` [Clozapine], the solubility in water entry is “practically insoluble in water”.
